Measured values: patent publication US20150217046A1, “DOSING REGIMENS FOR SUBCUTANEOUSLY INFUSIBLE ACIDIC COMPOSITIONS” (SynAgile Corporation, priority 2012, published 2015)

What was measured:
[1] = Infusion site reactions, continuous subcutaneous infusion of 100 mg/mL LDEE pH 3.7 (Example 5); assay type: in vivo, minipigs; conditions: for Fraction of sites with a reaction (firmness): pH 3.7, 100 mg/mL (0.44M) LDEE, continuous s.c. 8 h, 280 mg per site, N = 15 infusions
Protocol: The 5.6 mL volume was divided between two simultaneously infused sites, each site receiving 2.8 mL, i.e., 280 mg LDEE. At each site the flow rate was 0.35 mL/hour, i.e. 35 mg LDEE/hour was infused. The number of sites infused on the first day totaled in the four minipigs 8, and was 7 on the 8th day, because of dislodgement of a cannula from one site. The total number of infused sites was 15.

[2] = Infusion site reactions, intermittent and continuous subcutaneous infusion of 100 mg/mL LDEE pH 4.5 (Example 3); assay type: in vivo, minipigs
Excerpt: There were four treatment groups:
A: Six infusions, intermittent with ibuprofen.
B: Six infusions, intermittent with no ibuprofen.
C: Six infusions, continuous infusion with ibuprofen.
D: Six infusions, continuous infusion with no ibuprofen.

[3] = Infusion site reactions, intermittent subcutaneous infusion of 100 and 200 mg/mL LDEE pH 3.7 (Example 4); conditions: for infusion site reactions, doses pooled: 14 days post-infusion
Excerpt: Each infusion site was spaced a minimum of 2 inches (5 cm) apart from any other infusion site.

## CCOC(=O)[C@@H](N)Cc1ccc(O)c(O)c1 [LDEE, levodopa ethyl ester]
[1]; 100 mg/mL (0.44 M) LDEE pH 3.7, continuous s.c. 8 h, 0.35 mL/hour per site
  diameter of reactions (slightly raised and firm): about 1 cm
[1]; 100 mg/mL (0.44 M) LDEE pH 3.7, dose divided between two continuously infused sites
  fraction of sites with reactions: 1/15
[1]; 0 hrs after end of infusion
  Fraction of sites with a reaction (firmness): 0.067
[1]; 12 hrs after end of infusion
  Fraction of sites with a reaction (firmness): 0.067
[1]; 24 hrs after end of infusion
  Fraction of sites with a reaction (firmness): 0.067
[1]; 3 days after end of infusion
  Fraction of sites with a reaction (firmness): 0.067
[1]; 7 days after end of infusion
  Fraction of sites with a reaction (firmness): 0.067
[1]; 14 days after end of infusion
  Fraction of sites with a reaction (firmness): 0
[2]; 100 mg/mL (0.44 M) LDEE pH 4.5, 281 mg over 16 h s.c.
  diameter of firm swelling (infusion site reaction): 0.5-1.5 cm
[2]; 100 mg/mL (0.44 M) LDEE pH 4.5, 281 mg over 16 h s.c., Treatment A intermittent with ibuprofen, 3 Days Post-Infusion
  # of Infusion Site Reactions/# of Infusion Sites: 2/6
[2]; 100 mg/mL (0.44 M) LDEE pH 4.5, 281 mg over 16 h s.c., Treatment A intermittent with ibuprofen, 10 Days Post-Infusion
  # of Infusion Site Reactions/# of Infusion Sites: 5/6
[2]; 100 mg/mL (0.44 M) LDEE pH 4.5, 281 mg over 16 h s.c., Treatment A intermittent with ibuprofen, 15 Days Post-Infusion
  # of Infusion Site Reactions/# of Infusion Sites: 0/6
[2]; 100 mg/mL (0.44 M) LDEE pH 4.5, 281 mg over 16 h s.c., Treatment A intermittent with ibuprofen, Immediately Post-Infusion
  # of Infusion Site Reactions/# of Infusion Sites: 0/6
[2]; 100 mg/mL (0.44 M) LDEE pH 4.5, 281 mg over 16 h s.c., Treatment B intermittent, no ibuprofen, 3 Days Post-Infusion
  # of Infusion Site Reactions/# of Infusion Sites: 1/6
[2]; 100 mg/mL (0.44 M) LDEE pH 4.5, 281 mg over 16 h s.c., Treatment B intermittent, no ibuprofen, 10 Days Post-Infusion
  # of Infusion Site Reactions/# of Infusion Sites: 1/6
[2]; 100 mg/mL (0.44 M) LDEE pH 4.5, 281 mg over 16 h s.c., Treatment B intermittent, no ibuprofen, 15 Days Post-Infusion
  # of Infusion Site Reactions/# of Infusion Sites: 0/6
[2]; 100 mg/mL (0.44 M) LDEE pH 4.5, 281 mg over 16 h s.c., Treatment B intermittent, no ibuprofen, Immediately Post-Infusion
  # of Infusion Site Reactions/# of Infusion Sites: 0/6
[2]; 100 mg/mL (0.44 M) LDEE pH 4.5, 281 mg over 16 h s.c., Treatment C continuous with ibuprofen, 3 Days Post-Infusion
  # of Infusion Site Reactions/# of Infusion Sites: 2/6
[2]; 100 mg/mL (0.44 M) LDEE pH 4.5, 281 mg over 16 h s.c., Treatment C continuous with ibuprofen, 10 Days Post-Infusion
  # of Infusion Site Reactions/# of Infusion Sites: 6/6
[2]; 100 mg/mL (0.44 M) LDEE pH 4.5, 281 mg over 16 h s.c., Treatment C continuous with ibuprofen, 15 Days Post-Infusion
  # of Infusion Site Reactions/# of Infusion Sites: 0/6
[2]; 100 mg/mL (0.44 M) LDEE pH 4.5, 281 mg over 16 h s.c., Treatment C continuous with ibuprofen, Immediately Post-Infusion
  # of Infusion Site Reactions/# of Infusion Sites: 0/6
[2]; 100 mg/mL (0.44 M) LDEE pH 4.5, 281 mg over 16 h s.c., Treatment D continuous, no ibuprofen, 3 Days Post-Infusion
  # of Infusion Site Reactions/# of Infusion Sites: 4/6
[2]; 100 mg/mL (0.44 M) LDEE pH 4.5, 281 mg over 16 h s.c., Treatment D continuous, no ibuprofen, 10 Days Post-Infusion
  # of Infusion Site Reactions/# of Infusion Sites: 1/6
[2]; 100 mg/mL (0.44 M) LDEE pH 4.5, 281 mg over 16 h s.c., Treatment D continuous, no ibuprofen, 15 Days Post-Infusion
  # of Infusion Site Reactions/# of Infusion Sites: 0/6
[2]; 100 mg/mL (0.44 M) LDEE pH 4.5, 281 mg over 16 h s.c., Treatment D continuous, no ibuprofen, Immediately Post-Infusion
  # of Infusion Site Reactions/# of Infusion Sites: 0/6
[2]; 100 mg/mL (0.44 M) LDEE pH 4.5, 14-15 days post-infusion
  infusion site reactions, all treatments pooled: 0 out of 24
[2]; 281 mg LDEE in 100 mg/mL (0.44 M), pH 4.5, 24 out of 24 infusions
  granuloma formation: no granuloma formation
[3]; 100 mg/mL LDEE pH 3.7
  infusion site reactions, doses pooled: 0 out of 16
[3]; 200 mg/mL LDEE pH 3.7
  infusion site reactions, doses pooled: 5 out of 16
[3]; LDEE pH 3.7, volumes between 0.094 and 0.37 mL per hour per site
  tolerability of infused volume per site: well tolerated
[3]; pH 3.7, intermittent s.c. (35 min non-delivery), 100 mg/mL, 563 mg, 16 hrs, 0 hrs
  # of Infusion Site Reactions/# of Infusion Sites: 0/4
[3]; pH 3.7, intermittent s.c. (35 min non-delivery), 100 mg/mL, 563 mg, 16 hrs, 12 hrs
  # of Infusion Site Reactions/# of Infusion Sites: 0/4
[3]; pH 3.7, intermittent s.c. (35 min non-delivery), 100 mg/mL, 563 mg, 16 hrs, 24 hrs
  # of Infusion Site Reactions/# of Infusion Sites: 2/4
[3]; pH 3.7, intermittent s.c. (35 min non-delivery), 100 mg/mL, 563 mg, 16 hrs, 3 days
  # of Infusion Site Reactions/# of Infusion Sites: 3/4
[3]; pH 3.7, intermittent s.c. (35 min non-delivery), 100 mg/mL, 563 mg, 16 hrs, 7 days
  # of Infusion Site Reactions/# of Infusion Sites: 3/4
[3]; pH 3.7, intermittent s.c. (35 min non-delivery), 100 mg/mL, 563 mg, 16 hrs, 14 days
  # of Infusion Site Reactions/# of Infusion Sites: 0/4
[3]; pH 3.7, intermittent s.c., 100 mg/mL, 140 mg, 8 hrs, 0 hrs
  # of Infusion Site Reactions/# of Infusion Sites: 0/8
[3]; pH 3.7, intermittent s.c., 100 mg/mL, 140 mg, 8 hrs, 12 hrs
  # of Infusion Site Reactions/# of Infusion Sites: 0/8
[3]; pH 3.7, intermittent s.c., 100 mg/mL, 140 mg, 8 hrs, 24 hrs
  # of Infusion Site Reactions/# of Infusion Sites: 0/8
[3]; pH 3.7, intermittent s.c., 100 mg/mL, 140 mg, 8 hrs, 3 days
  # of Infusion Site Reactions/# of Infusion Sites: 3/8
[3]; pH 3.7, intermittent s.c., 100 mg/mL, 140 mg, 8 hrs, 7 days
  # of Infusion Site Reactions/# of Infusion Sites: 1/8
[3]; pH 3.7, intermittent s.c., 100 mg/mL, 140 mg, 8 hrs, 14 days
  # of Infusion Site Reactions/# of Infusion Sites: 0/8
[3]; pH 3.7, intermittent s.c., 100 mg/mL, 282 mg, 16 hrs, 0 hrs
  # of Infusion Site Reactions/# of Infusion Sites: 0/4
[3]; pH 3.7, intermittent s.c., 100 mg/mL, 282 mg, 16 hrs, 12 hrs
  # of Infusion Site Reactions/# of Infusion Sites: 0/4
[3]; pH 3.7, intermittent s.c., 100 mg/mL, 282 mg, 16 hrs, 24 hrs
  # of Infusion Site Reactions/# of Infusion Sites: 1/4
[3]; pH 3.7, intermittent s.c., 100 mg/mL, 282 mg, 16 hrs, 3 days
  # of Infusion Site Reactions/# of Infusion Sites: 1/4
[3]; pH 3.7, intermittent s.c., 100 mg/mL, 282 mg, 16 hrs, 7 days
  # of Infusion Site Reactions/# of Infusion Sites: 0/4
[3]; pH 3.7, intermittent s.c., 100 mg/mL, 282 mg, 16 hrs, 14 days
  # of Infusion Site Reactions/# of Infusion Sites: 0/4
[3]; pH 3.7, intermittent s.c., 200 mg/mL, 140 mg, 8 hrs, 0 hrs
  # of Infusion Site Reactions/# of Infusion Sites: 0/8
[3]; pH 3.7, intermittent s.c., 200 mg/mL, 140 mg, 8 hrs, 12 hrs
  # of Infusion Site Reactions/# of Infusion Sites: 0/8
[3]; pH 3.7, intermittent s.c., 200 mg/mL, 140 mg, 8 hrs, 24 hrs
  # of Infusion Site Reactions/# of Infusion Sites: 0/8
[3]; pH 3.7, intermittent s.c., 200 mg/mL, 140 mg, 8 hrs, 3 days
  # of Infusion Site Reactions/# of Infusion Sites: 3/8
[3]; pH 3.7, intermittent s.c., 200 mg/mL, 140 mg, 8 hrs, 7 days
  # of Infusion Site Reactions/# of Infusion Sites: 3/8
[3]; pH 3.7, intermittent s.c., 200 mg/mL, 140 mg, 8 hrs, 14 days
  # of Infusion Site Reactions/# of Infusion Sites: 2/8
[3]; pH 3.7, intermittent s.c., 200 mg/mL, 282 mg, 16 hrs, 0 hrs
  # of Infusion Site Reactions/# of Infusion Sites: 0/4
[3]; pH 3.7, intermittent s.c., 200 mg/mL, 282 mg, 16 hrs, 12 hrs
  # of Infusion Site Reactions/# of Infusion Sites: 0/4
[3]; pH 3.7, intermittent s.c., 200 mg/mL, 282 mg, 16 hrs, 24 hrs
  # of Infusion Site Reactions/# of Infusion Sites: 0/4
[3]; pH 3.7, intermittent s.c., 200 mg/mL, 282 mg, 16 hrs, 3 days
  # of Infusion Site Reactions/# of Infusion Sites: 2/4
[3]; pH 3.7, intermittent s.c., 200 mg/mL, 282 mg, 16 hrs, 7 days
  # of Infusion Site Reactions/# of Infusion Sites: 2/4
